The results in this text go back to patent US20240300932A1, “N-PHENYLIMINE DERIVATIVE AND PREPARATION METHOD AND USE THEREOF” (Guizhou University, priority 2023, published 2024).

Molecules are shown by their SMILES.

One series deals with Abutilon theophrasti. The series is described as follows: Post-emergence herbicidal activity test (stem and leaf spray, pot culture). The series is classed as in vivo. The settings on record: 3 weeks after spraying. In short, it runs like this: (§1)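 Seeds soaked 6 h at 25 °C, germinated at 28 °C, sown in loam pots and thinned to 10 plants/pot. At 2–3 leaves, plants received a single spray-tower application of 10, 5 or 2.5 g/mu. Fresh-weight control was graded 0–5 after 3 weeks.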

The subject of a further series is Amaranthus retroflexus. The series is described as above. The series is classed as in vivo. To be noted: 3 weeks after spraying. In short, it runs like this:
as §1

For another series, the system named is Echinochloa crusgalli. The series is described as above. The class given is in vivo. To be noted: 3 weeks after spraying. The gist of the method: as §1
The next series relates to Portulaca oleracea. The description is as above. The class given is in vivo. To be noted: 3 weeks after spraying. In short, it runs like this: as §1
The next series concerns Setaria viridis. The description is as above. To be noted: 3 weeks after spraying. The class given is in vivo. In short, it runs like this:
as §1

A further series has as its system Trifoliumre pensL. The series is described as follows: Post-emergence herbicidal activity test (stem and leaf spray, pot culture). To be noted: 3 weeks after spraying. The class given is in vivo. The gist of the method:
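Pot-grown weeds in loam (pH 7), greenhouse at 20–30 °C, sprayed once post-emergence at the 2–3-leaf stage. Compound in acetone with Tween 80 plus methyl oleate oil (1.5 L/ha), applied at 10, 5 and 2.5 g/mu by spray tower. Effect scored 3 weeks after spraying, averaged over three repeats.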

On to `O=C(COc1cc(N2C(=O)C3=C(CCCC3)C2=O)c(F)cc1Cl)c1cc(F)cc(F)c1` [Compound C5, 2-(4-chloro-2-fluoro-5-(2-oxo-2-(3,5-difluorophenyl)ethoxy)phenyl)-4,5,6,7-tetrahydro-1H-isoindole-1,3(2H)-dione], for which the melting point (in general, the temperature, or range, at which the solid turns liquid) lay within 135 to 137 °C. Also, in the series with Abutilon theophrasti (dosage 2.5 g/mu), the “Post-emergence herbicidal activity, A. theophrasti (grade)” value is listed as 5 (Grade 5: the growth control rate is greater than or equal to 85%). Besides, in the series with Abutilon theophrasti (dosage 5 g/mu), the “Post-emergence herbicidal activity, A. theophrasti (grade)” value is given as 5 (Grade 5: the growth control rate is greater than or equal to 85%). Also, the “Post-emergence herbicidal activity, A. theophrasti (grade)” value in the series on Abutilon theophrasti (dosage 10 g/mu) was 5 (Grade 5: the growth control rate is greater than or equal to 85%). In addition, the “Post-emergence herbicidal activity, A. retroflexus (grade)” value in the series on Amaranthus retroflexus (dosage 2.5 g/mu) is recorded as 5 (Grade 5: the growth control rate is greater than or equal to 85%). The “Post-emergence herbicidal activity, A. retroflexus (grade)” value in the series with Amaranthus retroflexus (dosage 5 g/mu) is reported as 5 (Grade 5: the growth control rate is greater than or equal to 85%). Moreover, the “Post-emergence herbicidal activity, A. retroflexus (grade)” value with Amaranthus retroflexus (dosage 10 g/mu) is 5 (Grade 5: the growth control rate is greater than or equal to 85%). The “Post-emergence herbicidal activity, E. crusgalli (grade)” value in the series with Echinochloa crusgalli (dosage 2.5 g/mu) is 1 (Grade 1: the growth control rate is greater than or equal to 5% and less than 20%). For the same compound, the “Post-emergence herbicidal activity, E. crusgalli (grade)” value in the series with Echinochloa crusgalli (dosage 5 g/mu) was 2 (Grade 2: the growth control rate is greater than or equal to 20% and less than 40%). In addition, the “Post-emergence herbicidal activity, E. crusgalli (grade)” value in the series on Echinochloa crusgalli (dosage 10 g/mu) was 3 (Grade 3: the growth control rate is greater than or equal to 40% and less than 60%). Further, the “Post-emergence herbicidal activity, P. oleracea (grade)” value with Portulaca oleracea (dosage 2.5 g/mu) was 5 (Grade 5: the growth control rate is greater than or equal to 85%). The “Post-emergence herbicidal activity, P. oleracea (grade)” value in the series on Portulaca oleracea (dosage 5 g/mu) was 5 (Grade 5: the growth control rate is greater than or equal to 85%). The “Post-emergence herbicidal activity, P. oleracea (grade)” value in the series with Portulaca oleracea (dosage 10 g/mu) is reported as 5 (Grade 5: the growth control rate is greater than or equal to 85%). For the same compound, in the series on Setaria viridis (dosage 2.5 g/mu), the “Post-emergence herbicidal activity, S. viridis (grade)” value was 2 (Grade 2: the growth control rate is greater than or equal to 20% and less than 40%). Besides, the “Post-emergence herbicidal activity, S. viridis (grade)” value in the series with Setaria viridis (dosage 5 g/mu) is 3 (Grade 3: the growth control rate is greater than or equal to 40% and less than 60%). Further, the “Post-emergence herbicidal activity, S. viridis (grade)” value in the series on Setaria viridis (dosage 10 g/mu) was 4 (Grade 4: the growth control rate is greater than or equal to 60% and less than 85%). In addition, the “Post-emergence herbicidal activity, Trifoliumre pensL. (grade)” value in the series with Trifoliumre pensL. (dosage 2.5 g/mu) was 5 (Grade 5: the growth control rate is greater than or equal to 85%). Also, the “Post-emergence herbicidal activity, Trifoliumre pensL. (grade)” value in the series with Trifoliumre pensL. (dosage 5 g/mu) is recorded as 5 (Grade 5: the growth control rate is greater than or equal to 85%). Moreover, in the series with Trifoliumre pensL. (dosage 10 g/mu), the “Post-emergence herbicidal activity, Trifoliumre pensL. (grade)” value is 5 (Grade 5: the growth control rate is greater than or equal to 85%).
Consider `O=C(COc1cc(N2C(=O)C3=C(CCCC3)C2=O)c(F)cc1Cl)c1ccc(F)cc1` [Compound C8, 2-(4-chloro-2-fluoro-5-(2-oxo-2-(4-fluorophenyl)ethoxy)phenyl)-4,5,6,7-tetrahydro-1H-isoindole-1,3(2H)-dione], for which the melting point is 126 to 128 °C. In addition, in the series on Abutilon theophrasti (dosage 2.5 g/mu), the “Post-emergence herbicidal activity, A. theophrasti (grade)” value is recorded as 5 (Grade 5: the growth control rate is greater than or equal to 85%). Moreover, the “Post-emergence herbicidal activity, A. theophrasti (grade)” value in the series on Abutilon theophrasti (dosage 5 g/mu) is given as 5 (Grade 5: the growth control rate is greater than or equal to 85%). For the same compound, in the series with Abutilon theophrasti (dosage 10 g/mu), the “Post-emergence herbicidal activity, A. theophrasti (grade)” value is on record as 5 (Grade 5: the growth control rate is greater than or equal to 85%). For the same compound, the “Post-emergence herbicidal activity, A. retroflexus (grade)” value in the series with Amaranthus retroflexus (dosage 2.5 g/mu) is on record as 5 (Grade 5: the growth control rate is greater than or equal to 85%). Moreover, in the series on Amaranthus retroflexus (dosage 5 g/mu), the “Post-emergence herbicidal activity, A. retroflexus (grade)” value is given as 5 (Grade 5: the growth control rate is greater than or equal to 85%). Also, the “Post-emergence herbicidal activity, A. retroflexus (grade)” value in the series on Amaranthus retroflexus (dosage 10 g/mu) is given as 5 (Grade 5: the growth control rate is greater than or equal to 85%). In addition, the “Post-emergence herbicidal activity, E. crusgalli (grade)” value in the series with Echinochloa crusgalli (dosage 2.5 g/mu) is 1 (Grade 1: the growth control rate is greater than or equal to 5% and less than 20%). For the same compound, in the series with Echinochloa crusgalli (dosage 5 g/mu), the “Post-emergence herbicidal activity, E. crusgalli (grade)” value was 2 (Grade 2: the growth control rate is greater than or equal to 20% and less than 40%). In the series with Echinochloa crusgalli (dosage 10 g/mu), the “Post-emergence herbicidal activity, E. crusgalli (grade)” value was 3 (Grade 3: the growth control rate is greater than or equal to 40% and less than 60%). Besides, the “Post-emergence herbicidal activity, P. oleracea (grade)” value in the series on Portulaca oleracea (dosage 2.5 g/mu) is 5 (Grade 5: the growth control rate is greater than or equal to 85%). The “Post-emergence herbicidal activity, P. oleracea (grade)” value with Portulaca oleracea (dosage 5 g/mu) is listed as 5 (Grade 5: the growth control rate is greater than or equal to 85%). For the same compound, in the series with Portulaca oleracea (dosage 10 g/mu), the “Post-emergence herbicidal activity, P. oleracea (grade)” value is reported as 5 (Grade 5: the growth control rate is greater than or equal to 85%). The “Post-emergence herbicidal activity, S. viridis (grade)” value with Setaria viridis (dosage 2.5 g/mu) is 2 (Grade 2: the growth control rate is greater than or equal to 20% and less than 40%). The “Post-emergence herbicidal activity, S. viridis (grade)” value with Setaria viridis (dosage 5 g/mu) was 3 (Grade 3: the growth control rate is greater than or equal to 40% and less than 60%). Further, the “Post-emergence herbicidal activity, S. viridis (grade)” value in the series with Setaria viridis (dosage 10 g/mu) was 4 (Grade 4: the growth control rate is greater than or equal to 60% and less than 85%). Further, the “Post-emergence herbicidal activity, Trifoliumre pensL. (grade)” value in the series with Trifoliumre pensL. (dosage 2.5 g/mu) was 5 (Grade 5: the growth control rate is greater than or equal to 85%). In the series on Trifoliumre pensL. (dosage 5 g/mu), the “Post-emergence herbicidal activity, Trifoliumre pensL. (grade)” value was 5 (Grade 5: the growth control rate is greater than or equal to 85%). In the series on Trifoliumre pensL. (dosage 10 g/mu), the “Post-emergence herbicidal activity, Trifoliumre pensL. (grade)” value is recorded as 5 (Grade 5: the growth control rate is greater than or equal to 85%).
